Broadly, the IC50 is the concentration needed to halve the response being measured. Read a low IC50 as greater potency in that assay. As usually defined, the solubility is the concentration that dissolves in the medium under given conditions.

The structures appear in SMILES notation.

Data set [1] concerns IMR-32 neuroblastoma cell line. As to the kind of experiment: Inhibition of erastin-induced ferroptosis in IMR-32 cells (Sytox Green cell death readout). The data set is classed as cell-based. To be noted: Homo sapiens; inhibiting ferroptosis in the IMR-32 neuroblastoma cell line stimulated with 10 μM erastin; compounds 1 nM to 1 μM, triplicate. The method, then:
In the present disclosure, the potency of a compound inhibiting (or reducing) ferroptosis and/or oxytosis are determined in in vitro or in vivo assays. Typically in vitro assays are used to measure the potency of a candidate compound. Examples of suitable in vitro assays are cellular assays. One non-limiting example of an assay involves the use of the IMR-32 neuroblastoma cell line. The latter is stimulated to enter into ferroptosis upon stimulation with 10 μM erastin, a documented ferroptosis inducer (see, for example, Dixon et al. (2012) Cell 149, 1060-1072, and ferroptosis inhibitors are evaluated for the prevention of erastin-induced ferroptosis. Yet another assay is based the glutamate-induced cell death in the hippocampal cell line HT22 and ferroptosis/oxytosis inhibitors are evaluated for the prevention of cell death (see N. Henke et al. (2013) Cell Death and Disease 4, e470). Still another assay is based on the sorafinib-induced cell death (described to be iron dependent cell death) in hepatocellular carcinoma cells and ferroptosis inhibitors are evaluated for the prevention of cell death (see C. Louandre et al. (2013) Int. J. Cancer 133, 1732). The calculated potency of a compound inhibiting ferroptosis and/or oxytosis is typically depicted as an IC50 value. Examples of suitable in vivo assays are typically pre-clinical disease models of, for example, mice for the diseases benefiting the application of ferroptosis and/or oxytosis inhibitors, as described herein. One non-limiting example of an in vivo assay is based on inducing liver damage in mice by administering the herbicide diquat dibromide monohydrate and ferroptosis inhibitors are evaluated based on reduced levels of liver transaminases in serum (see Q. Ran et al. (2004) J. Biol. Chem. 279, 53, 55137).
The IC50 values for the individual compounds of the disclosure were determined in the neuroblastoma, IMR-32 cell line. In brief, IMR-32 cells were subjected to 10 μM erastin, the latter compound is known to induce ferroptosis. A concentration gradient (ranging from 1 nM to 1 μM) of the compounds was applied to the cells. These experiments were performed in a 96-well format (in triplicate), and cell death was analyzed in a fluorescent plate reader by use of a fluorescent cell death dye (1.5 μM Sytox Green). The IC50 values depicted in Table 1 are the concentration values for the individual compounds which are able to overcome ferroptosis.

Data set [2] can be described thus: Kinetic solubility (turbidity). The data set is classed as physicochemical. The following applies: kinetic solubility by turbidity, test range 3.125 μM to 200 μM, 10 mM PBS pH 7.4. As for the experimental part:
(§1) Unless otherwise stated, laboratory reagent grade solvents were used. Reagents were obtained from Sigma-Aldrich, Acros Organics or Fluorochem and were used without further purification. Characterization of all compounds was done with ^1H and ^13C NMR and mass spectrometry. ^1H and ^13C NMR spectra were recorded on a 400 MHz Bruker Avance III Nanobay spectrometer with Ultrashield and analyzed by use of MestReNova analytical chemistry software. Chemical shifts are in ppm, and coupling constants are in hertz (Hz). ES mass spectra were obtained from an Esquire 3000 plus ion trap mass spectrometer from Bruker Daltonics. Purities were determined with two diverse HPLC systems based either on mass determination or on UV detection. A Waters acquity UPLC system coupled to a Waters TQD ESI mass spectrometer or a Waters SQD ESI mass spectrometer was used both in combination with a Waters TUV detector. Water (A) and CH3CN (B) were used as eluents. LC-MS spectra were recorded on an Agilent 1100 series HPLC system using a Alltech Prevail C18 column (2.1 mm×50 mm, 3 μm) coupled with an Esquire 3000 plus as MS detector, and a “method A” 5-100% B, 20 min gradient was used with a flow rate of 0.2 mL/min. Formic acid, 0.1%, was added to solvents A and B. Waters Acquity UPLC BEH C18 1.7 μm, 2.1 mm×50 mm column was used. Solvent A consisted of water with 0.1% formic acid. Solvent B consisted of acetonitrile with 0.1% formic acid. Method I involved the following: 0.15 min 95% A, 5% B, then in 1.85 min from 95% A, 5% B to 95% B, 5% A, then 0.25 min (0.350 mL/min), 95% B, 5% A. The wavelength for UV detection was 254 nm. Method II involved the following: flow 0.4 mL/min, 0.25 min 95% A, 5% B, then in 4.75 min to 95% B, 5% A, then 0.25 min 95% B, 5% A, followed by 0.75 min 95% A, 5% B. The wavelength for UV detection was 214 nm. Where necessary, flash purification was performed on a Biotage ISOLERA One flash system equipped with an internal variable dual wavelength diode array detector (200-400 nm). For normal phase purifications SNAP cartridges (10-340 g, flow rate of 10-100 mL/min) were used, and reversed phase purifications were done making use of KP-C18 containing cartridges. Dry sample loading was done by self-packing samplet cartridges using silica and Celite 545, respectively, for normal and reversed phase purifications. Gradients used varied for each purification. Mouse and rat plasma came from Innovative Research. The turbidity in the kinetic solubility experiments was measured using the UV/vis spectrophotometer Synergy MX, Biotek with Gen5.

A short description of data set [3]: Microsomal stability, human microsomes. The method, then:
(§2) In a next step a subset of compounds was subjected to ADME analysis. Thereto the metabolism by murine and human microsomes of representative compounds of the disclosure was measured. The compound ferrostatin-1 (Fer-1, described in S. J. Dixon et al. (2012) Cell 149, 1060-1072), originally described to inhibit ferroptosis, was used a control. In addition, the plasma stability in murine and human plasma was measured. The percentage of remaining compounds was measured by LC-MS.

A short description of data set [4]: Microsomal stability, murine microsomes. The method, then:
as §2

Data set [5] in a line: Plasma stability, human plasma. The following applies: for recovery at 6 h: human. Type of data set: in vitro ADME.
Experimental: Thereto the metabolism by murine and human microsomes of representative compounds of the disclosure was measured. […] In addition, the plasma stability in murine and human plasma was measured. The percentage of remaining compounds was measured by LC-MS.
Data set [6] in a line: Plasma stability, murine plasma. The data set is classed as in vitro ADME, mouse. To be noted: for recovery at 6 h: mouse. As for the experimental part: as §1
The mark [7] stands for this setting: aqueous buffer, kinetic from dmso stock.
Setting [8] is: human microsomes (CYP450 and other NADPH-dependent enzymes).
Where [9] appears, read: mouse microsomes (CYP450 and other NADPH-dependent enzymes).

For the compound `CN1CCN(S(=O)(=O)c2ccc(NC3CCCCC3)c(N)c2)CC1` [Compound 31, N1-cyclohexyl-4-((4-methylpiperazin-1-yl)sulfonyl)benzene-1,2-diamine], the midpoint of inhibition in data set [1], the IC50, lay at 206 nM. Further, in data set [2] (setting [7]), the solubility is above 200 µM.
In data set [1], `CCNS(=O)(=O)c1ccc(NC2C3CC4CC(C3)CC2C4)c(NCc2ccccc2)c1` (centres unmarked) [Compound 44, 4-(adamantan-2-ylamino)-3-(benzylamino)-N-ethylbenzenesulfonamide] registered an IC50 of 3.5 nM. The solubility in data set [2] (setting [7]) lay in the range of 12.5 to 25 µM. For the same compound, the “Microsomal stability Half-life (t1/2) (min) Human” value in data set [3] (human, microsomes) is given as 36 ± 11 min. Also, the “Microsomal stability Half-life (t1/2) (min) Mouse” value in data set [4] (mouse, microsomes) came out at 31 ± 6 min. For the same compound, the recovery at 6 h stood at 100% in data set [5] and 99.4% in data set [6].
`O=S(=O)(NCCO)c1ccc(NC2CCCCC2)c(NCc2ccccc2)c1` [Compound 58, 3-(benzylamino)-4-(cyclohexylamino)-N-(2-hydroxyethyl)benzenesulfonamide] displayed an IC50 in data set [1] of 14 nM. Besides, the solubility in data set [2] (setting [7]) lay in the range of 100 to 200 µM.
`CCNS(=O)(=O)c1ccc(NC2CCCCC2)c(NCc2cncnc2)c1` [Compound 39, 4-(cyclohexylamino)-N-ethyl-3-((pyrimidin-5-ylmethyl)amino)benzenesulfonamide] yielded a half-maximal inhibitory concentration (IC50) in data set [1] of 187 nM. Also, in data set [2] (setting [7]), the solubility lay within 100 to 200 µM.
On to `CCOC(=O)c1ccc(NC2CCCCC2)c(N)c1` [Fer-1, ferrostatin-1, reference compound], for which the solubility in data set [2] is on record as above 200 µM. Moreover, in data set [3] (setting [8]), the “Microsomal stability Half-life (t1/2) (min) Human” value worked out at 6.9 ± 0.2 min. Besides, the “Microsomal stability Half-life (t1/2) (min) Mouse” value in data set [4] (setting [9]) is on record as 1.9 ± 0.6 min. In addition, in data set [5] (human plasma, 6 h, percentage of remaining parent compound, LC-MS), the “Plasma stability % recovery after 6 h Human” value came out at 100%. In data set [6] (mouse plasma, 6 h, percentage of remaining parent compound, LC-MS), the “Plasma stability % recovery after 6 h Mouse” value is 0%.
On to `Nc1cc(S(=O)(=O)N2CCOCC2)ccc1NC1CCCCC1` [Compound 32, N1-cyclohexyl-4-(morpholinosulfonyl)benzene-1,2-diamine], for which the IC50 in data set [1] came out at 208 nM. In addition, the solubility in data set [2] (setting [7]) was above 200 µM.
The compound `CCNS(=O)(=O)c1ccc(NC2CCCCC2)c(NCc2ccccc2)c1` [Compound 37, 3-(benzylamino)-4-(cyclohexylamino)-N-ethylbenzenesulfonamide] registered an IC50 in data set [1] of 4 nM. Moreover, the solubility in data set [2] (setting [7]) fell in the range of 12.5 to 25 µM. Further, the “Microsomal stability Half-life (t1/2) (min) Human” value in data set [3] (human, microsomes) was found to be 88 ± 16 min. In addition, in data set [4] (mouse, microsomes), the “Microsomal stability Half-life (t1/2) (min) Mouse” value came out at 187 ± 41 min. Also, the values for the recovery at 6 h in data set [5] and in data set [6] were 100% and 98.6%, respectively.
On to `O=S(=O)(c1ccc(NC2CCCCC2)c(NCc2ccccc2)c1)N1CCOCC1` [Compound 57, N2-benzyl-N1-cyclohexyl-4-(morpholinosulfonyl)benzene-1,2-diamine], for which the half-maximal inhibitory concentration (IC50) in data set [1] turned out to be 30 nM. In addition, the solubility in data set [2] (setting [7]) was in the range of 25 to 50 µM.
In the case of `CN1CCN(S(=O)(=O)c2ccc(NC3CCCCC3)c(NCc3ccccc3)c2)CC1` [Compound 56, N2-benzyl-N1-cyclohexyl-4-((4-methylpiperazin-1-yl)sulfonyl)benzene-1,2-diamine], the IC50 in data set [1] worked out at 33 nM. In data set [2] (setting [7]), the solubility is 25 to 50 µM.
Regarding `CCNS(=O)(=O)c1ccc(NC2C3CC4CC(C3)CC2C4)c(NCc2ccncc2)c1` (centres unmarked) [Compound 45, 4-(adamantan-2-ylamino)-N-ethyl-3-((pyridin-4-ylmethyl)amino)benzenesulfonamide], the midpoint of inhibition in data set [1], the IC50, lay at 3.9 nM. Moreover, in data set [2] (setting [7]), the solubility is 12.5 to 25 µM. In addition, the “Microsomal stability Half-life (t1/2) (min) Human” value in data set [3] (setting [8]) is recorded as 64 ± 10 min. In addition, the “Microsomal stability Half-life (t1/2) (min) Mouse” value in data set [4] (setting [9]) is recorded as 26 ± 5 min. Besides, the recovery at 6 h in data set [5] and in data set [6] was 100% each time.
`CCNS(=O)(=O)c1ccc(NC2CCCCC2)c(N)c1` [Compound 22, 3-amino-4-(cyclohexylamino)-N-ethylbenzenesulfonamide]: inhibition in data set [1] was half-maximal at 67 nM (IC50). In addition, the solubility in data set [2] (setting [7]) lay in the range of 12.5 to 25 µM. For the same compound, the “Microsomal stability Half-life (t1/2) (min) Human” value in data set [3] (human, microsomes) is on record as 37 ± 3 min. The “Microsomal stability Half-life (t1/2) (min) Mouse” value in data set [4] (mouse, microsomes) was 31 ± 5 min. The recovery at 6 h in data set [5] was 81.9%; in data set [6], 86.2%.

These data come from patent US9862678B2, “3,4-diaminobenzenesulfonamide derivatives for inhibiting cell death” (VIB VZW, priority 2014, dated 2018).
